Reference: PubChem BioAssay (NCI)
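GI50: concentration for 50% inhibition of growth. Definition used: TGI = concentration required for complete inhibition of growth.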

Legend:
Assay in all cases: inhibition of tumour cell growth, NCI panel, 384-well format
SK-MEL-28 melanoma = system: SK-MEL-28 melanoma
HS 578T breast = system: HS 578T breast
OVCAR-3 ovarian = system: OVCAR-3 ovarian
SK-OV-3 ovarian = system: SK-OV-3 ovarian
SK-MEL-5 melanoma = system: SK-MEL-5 melanoma
A498 renal = system: A498 renal
NCI-H226 lung = system: NCI-H226 lung
UO-31 renal = system: UO-31 renal
HL-60(TB) leukemia = system: HL-60(TB) leukemia
CCRF-CEM leukemia = system: CCRF-CEM leukemia
MOLT-4 leukemia = system: MOLT-4 leukemia
LOX IMVI melanoma = system: LOX IMVI melanoma
IGROV1 ovarian = system: IGROV1 ovarian
RPMI-8226 leukemia = system: RPMI-8226 leukemia
OVCAR-5 ovarian = system: OVCAR-5 ovarian
MDA-MB-231 breast = system: MDA-MB-231 breast
TK-10 renal = system: TK-10 renal
SF-295 CNS = system: SF-295 CNS
COLO 205 colon = system: COLO 205 colon
SNB-75 CNS = system: SNB-75 CNS
NCI-H23 lung = system: NCI-H23 lung
MALME-3M melanoma = system: MALME-3M melanoma
A549 NSCLC = system: A549 NSCLC
SNB-19 CNS = system: SNB-19 CNS
OVCAR-4 ovarian = system: OVCAR-4 ovarian
SF-539 CNS = system: SF-539 CNS
HOP-62 NSCLC = system: HOP-62 NSCLC
HCC-2998 colon = system: HCC-2998 colon
NCI-H322M lung = system: NCI-H322M lung
UACC-62 melanoma = system: UACC-62 melanoma
NCI-H522 lung = system: NCI-H522 lung
CAKI-1 renal = system: CAKI-1 renal
U251 glioblastoma = system: U251 glioblastoma
HOP-92 NSCLC = system: HOP-92 NSCLC
SN12C renal = system: SN12C renal
ACHN renal = system: ACHN renal
MCF7 breast = system: MCF7 breast
MDA-MB-468 breast = system: MDA-MB-468 breast
OVCAR-8 ovarian = system: OVCAR-8 ovarian
KM12 colon = system: KM12 colon
SF-268 CNS = system: SF-268 CNS
HT29 colon = system: HT29 colon
MDA-MB-435 melanoma = system: MDA-MB-435 melanoma
UACC-257 melanoma = system: UACC-257 melanoma
M14 melanoma = system: M14 melanoma
SW-620 colon = system: SW-620 colon
SR leukemia = system: SR leukemia
NCI/ADR-RES ovarian = system: NCI/ADR-RES ovarian
EKVX NSCLC = system: EKVX NSCLC
PC-3 prostate = system: PC-3 prostate
T-47D breast = system: T-47D breast
RXF 393 renal = system: RXF 393 renal
786-0 renal = system: 786-0 renal
HCT-15 colon = system: HCT-15 colon
NCI-H460 NSCLC = system: NCI-H460 NSCLC
K-562 leukemia = system: K-562 leukemia
BT-549 breast = system: BT-549 breast
DU-145 prostate = system: DU-145 prostate

## CN(Cc1cnc2nc(N)nc(N)c2n1)c1ccc(C(=O)N[C@@H](CCC(=O)O)C(=O)O)cc1
SK-MEL-28 melanoma
  GI50: 27.7 nM
  TGI: 60.7 nM
HS 578T breast
  GI50: < 15.1 nM
  TGI: 31.6 nM
OVCAR-3 ovarian
  GI50: < 14.8 nM
  TGI: 27.6 nM
SK-OV-3 ovarian
  GI50: 1450 nM
SK-MEL-5 melanoma
  GI50: 130 nM
  TGI: 87300 nM
A498 renal
  GI50: < 18.8 nM
  TGI: 232 nM
NCI-H226 lung
  GI50: 28.9 nM
UO-31 renal
  GI50: 29.5 nM
  TGI: 9760 nM
HL-60(TB) leukemia
  TGI: < 14.2 nM
CCRF-CEM leukemia
  TGI: < 11.3 nM
MOLT-4 leukemia
  TGI: 18.1 nM
LOX IMVI melanoma
  TGI: 14 nM
IGROV1 ovarian
  GI50: 28.6 nM
RPMI-8226 leukemia
  GI50: 17.3 nM
  TGI: 42.1 nM
OVCAR-5 ovarian
  TGI: < 15.4 nM
MDA-MB-231 breast
  GI50: 263 nM
  TGI: 680 nM
TK-10 renal
  GI50: 23.6 nM
  TGI: 52.3 nM
SF-295 CNS
  GI50: < 13.5 nM
  TGI: < 20.9 nM
COLO 205 colon
  GI50: 51.3 nM
  TGI: 95900 nM
SNB-75 CNS
  GI50: < 12.9 nM
  TGI: < 28.3 nM
NCI-H23 lung
  GI50: 30.4 nM
  TGI: 308 nM
MALME-3M melanoma
  GI50: < 15.3 nM
A549 NSCLC
  TGI: 17.8 nM
SNB-19 CNS
  GI50: < 19.7 nM
OVCAR-4 ovarian
  TGI: 66.5 nM
SF-539 CNS
  TGI: 13600 nM
HOP-62 NSCLC
  GI50: 37.5 nM
  TGI: 123 nM
HCC-2998 colon
  GI50: 39.1 nM
NCI-H322M lung
  GI50: < 12.6 nM
  TGI: 22.6 nM
UACC-62 melanoma
  GI50: 18.9 nM
NCI-H522 lung
  GI50: 32 nM
  TGI: 543 nM
CAKI-1 renal
  GI50: 26.3 nM
  TGI: 73.8 nM
U251 glioblastoma
  GI50: 31.7 nM

## CC(C)c1cnn2c(NCc3ccccc3)cc(NC[C@H]3CCNC[C@@H]3O)nc12
HOP-92 NSCLC
  GI50: 382 nM
  TGI: 2340 nM
SK-MEL-28 melanoma
  GI50: 226 nM
  TGI: 1130 nM
HS 578T breast
  GI50: 214 nM
  TGI: 501 nM
OVCAR-3 ovarian
  GI50: 105 nM
  TGI: 578 nM
SK-OV-3 ovarian
  GI50: 360 nM
  TGI: 6890 nM
SN12C renal
  GI50: 168 nM
  TGI: 841 nM
ACHN renal
  GI50: 782 nM
  TGI: 11200 nM
MCF7 breast
  GI50: 113 nM
  TGI: 474 nM
SK-MEL-5 melanoma
  GI50: 242 nM
  TGI: 655 nM
A498 renal
  GI50: 157 nM
  TGI: 599 nM
MDA-MB-468 breast
  GI50: 328 nM
  TGI: 662 nM
OVCAR-8 ovarian
  GI50: 249 nM
  TGI: 973 nM
KM12 colon
  GI50: 128 nM
  TGI: 541 nM
NCI-H226 lung
  GI50: 193 nM
  TGI: 675 nM
UO-31 renal
  GI50: 3870 nM
  TGI: 14800 nM
SF-268 CNS
  GI50: 173 nM
  TGI: 411 nM
HL-60(TB) leukemia
  GI50: 156 nM
  TGI: 291 nM
CCRF-CEM leukemia
  GI50: 213 nM
  TGI: 380 nM
HT29 colon
  GI50: 330 nM
  TGI: 10700 nM
MDA-MB-435 melanoma
  GI50: 409 nM
  TGI: 1450 nM
UACC-257 melanoma
  GI50: 371 nM
  TGI: 1660 nM
M14 melanoma
  GI50: 292 nM
  TGI: 1190 nM
SW-620 colon
  GI50: 167 nM
  TGI: 1660 nM
MOLT-4 leukemia
  GI50: 122 nM
  TGI: 267 nM
SR leukemia
  GI50: 23.5 nM
  TGI: 103 nM
LOX IMVI melanoma
  GI50: 84.5 nM
  TGI: 260 nM
NCI/ADR-RES ovarian
  GI50: 13800 nM
  TGI: 28900 nM
IGROV1 ovarian
  GI50: 332 nM
  TGI: 2870 nM
EKVX NSCLC
  GI50: 467 nM
  TGI: 2530 nM
RPMI-8226 leukemia
  GI50: 16.9 nM
  TGI: 56.5 nM
OVCAR-5 ovarian
  GI50: 246 nM
  TGI: 770 nM
MDA-MB-231 breast
  GI50: 290 nM
  TGI: 1730 nM
TK-10 renal
  GI50: 2980 nM
  TGI: 14000 nM
SF-295 CNS
  GI50: 419 nM
  TGI: 3460 nM
PC-3 prostate
  GI50: 271 nM
  TGI: 985 nM
COLO 205 colon
  GI50: 133 nM
  TGI: 411 nM
T-47D breast
  GI50: 404 nM
  TGI: 3740 nM
SNB-75 CNS
  GI50: 789 nM
  TGI: 2040 nM
RXF 393 renal
  GI50: 251 nM
  TGI: 635 nM
NCI-H23 lung
  GI50: 167 nM
  TGI: 644 nM
MALME-3M melanoma
  GI50: 345 nM
  TGI: 1800 nM
SNB-19 CNS
  GI50: 410 nM
  TGI: 10500 nM
OVCAR-4 ovarian
  GI50: 154 nM
  TGI: 475 nM
SF-539 CNS
  GI50: 107 nM
  TGI: 345 nM
786-0 renal
  GI50: 211 nM
  TGI: 1520 nM
HOP-62 NSCLC
  GI50: 131 nM
  TGI: 346 nM
HCT-15 colon
  GI50: 1300 nM
  TGI: 8560 nM
HCC-2998 colon
  GI50: 223 nM
  TGI: 787 nM
NCI-H322M lung
  GI50: 291 nM
  TGI: 975 nM
NCI-H460 NSCLC
  GI50: 22.6 nM
  TGI: 64.6 nM
K-562 leukemia
  GI50: 389 nM
  TGI: 1960 nM
UACC-62 melanoma
  GI50: 57.8 nM
  TGI: 238 nM
NCI-H522 lung
  GI50: 164 nM
  TGI: 1680 nM
BT-549 breast
  GI50: 241 nM
  TGI: 519 nM
CAKI-1 renal
  GI50: 317 nM
  TGI: 2820 nM
DU-145 prostate
  GI50: 111 nM
  TGI: 1780 nM

## FC(F)(c1ccc2ncccc2c1)c1nnc2ccc(-c3ccncc3)nn12
HS 578T breast
  GI50: < 10 nM
  TGI: 137 nM
SN12C renal
  GI50: 33 nM
  TGI: > 100000 nM
MDA-MB-468 breast
  GI50: 22 nM
  TGI: 628 nM
HT29 colon
  GI50: 185 nM
  TGI: > 100000 nM
MOLT-4 leukemia
  GI50: 10.2 nM
  TGI: 183 nM
SR leukemia
  GI50: < 10 nM
  TGI: 126 nM
NCI/ADR-RES ovarian
  GI50: 460 nM
  TGI: 27200 nM
RPMI-8226 leukemia
  GI50: < 10 nM
OVCAR-5 ovarian
  GI50: 112 nM
  TGI: > 100000 nM
SF-295 CNS
  GI50: < 10 nM
  TGI: 108 nM
RXF 393 renal
  GI50: 11.2 nM
  TGI: 206 nM
SF-539 CNS
  GI50: 164 nM
  TGI: > 100000 nM
786-0 renal
  GI50: 191 nM
  TGI: > 100000 nM
HCT-15 colon
  GI50: 55.7 nM
  TGI: > 100000 nM
HCC-2998 colon
  GI50: < 10 nM
  TGI: > 100000 nM
NCI-H322M lung
  GI50: < 10 nM
  TGI: > 100000 nM
NCI-H460 NSCLC
  GI50: < 10 nM
  TGI: > 100000 nM
K-562 leukemia
  GI50: 219 nM
  TGI: > 100000 nM
